This passage reports inhibition and Ki results from ChEMBL document CHEMBL4414598, “Trifluorinated Pyrimidine-Based A2B Antagonists: Optimization and Evidence of Stereospecific Recognition” (J Med Chem, 2019).

For test [1], the target named is T1, Adenosine receptor A3 (Homo sapiens) (UniProt P0DMS8).
T1 sequence (whole entry): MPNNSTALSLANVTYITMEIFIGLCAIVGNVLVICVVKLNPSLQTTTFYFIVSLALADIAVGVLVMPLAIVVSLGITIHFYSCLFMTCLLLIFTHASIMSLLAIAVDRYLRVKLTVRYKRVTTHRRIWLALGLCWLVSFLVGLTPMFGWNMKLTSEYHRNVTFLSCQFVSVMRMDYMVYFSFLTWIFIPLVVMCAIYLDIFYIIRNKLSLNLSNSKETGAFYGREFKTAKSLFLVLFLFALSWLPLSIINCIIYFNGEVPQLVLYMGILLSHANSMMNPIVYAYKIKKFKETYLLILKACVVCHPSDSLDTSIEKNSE
The test can be described thus: Displacement of [3H]NECA from human A3 receptor expressed in human HeLa cell membranes at 1 uM incubated for 180 mins by radioligand binding competition assay relative to control. (In general: In a radioligand displacement assay an active substance lowers the binding of a labelled ligand.)

Test [2] concerns the target T2, Adenosine receptor A2a (Homo sapiens, UniProt P29274). The test can be described thus: Displacement of [3H]ZM241385 from human recombinant A2A receptor expressed in human HeLa cell membranes at 1 uM incubated for 30 mins by radioligand binding competition assay relative to control.
Test [3] addresses T3, Adenosine receptor A1 (Homo sapiens) (UniProt P30542).
T3 sequence (whole entry): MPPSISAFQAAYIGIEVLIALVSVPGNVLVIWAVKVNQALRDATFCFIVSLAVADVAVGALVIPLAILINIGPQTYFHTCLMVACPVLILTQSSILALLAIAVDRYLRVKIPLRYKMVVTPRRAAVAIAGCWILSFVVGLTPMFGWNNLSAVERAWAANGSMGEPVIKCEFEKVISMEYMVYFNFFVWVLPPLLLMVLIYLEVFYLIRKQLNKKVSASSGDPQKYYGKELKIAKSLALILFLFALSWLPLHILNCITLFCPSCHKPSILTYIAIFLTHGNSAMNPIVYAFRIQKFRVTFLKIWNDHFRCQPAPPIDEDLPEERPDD
Description: Displacement of [3H]DPCPX from human recombinant A1 receptor expressed in CHOA1 cell membranes at 1 uM incubated for 60 mins by radioligand binding competition assay relative to control.

The target of test [4] is T4, Adenosine receptor A1 (Homo sapiens, UniProt P30542).
T4 sequence (P30542 whole entry): T3 sequence (whole entry)
The test can be described thus: Displacement of [3H]DPCPX from human recombinant A1 receptor expressed in CHOA1 cell membranes incubated for 60 mins by radioligand binding competition assay.

Test [5] concerns the target T2, Adenosine receptor A2a. Description: Displacement of [3H]ZM241385 from human recombinant A2A receptor expressed in human HeLa cell membranes incubated for 30 mins by radioligand binding competition assay.
Test [6] has as its target T5, Adenosine receptor A3 (Homo sapiens, UniProt P0DMS8).
T5 sequence (P0DMS8 whole entry): T1 sequence (whole entry)
Description: Displacement of [3H]NECA from human A3 receptor expressed in human HeLa cell membranes incubated for 180 mins by radioligand binding competition assay.

T2 sequence (P29274 whole entry): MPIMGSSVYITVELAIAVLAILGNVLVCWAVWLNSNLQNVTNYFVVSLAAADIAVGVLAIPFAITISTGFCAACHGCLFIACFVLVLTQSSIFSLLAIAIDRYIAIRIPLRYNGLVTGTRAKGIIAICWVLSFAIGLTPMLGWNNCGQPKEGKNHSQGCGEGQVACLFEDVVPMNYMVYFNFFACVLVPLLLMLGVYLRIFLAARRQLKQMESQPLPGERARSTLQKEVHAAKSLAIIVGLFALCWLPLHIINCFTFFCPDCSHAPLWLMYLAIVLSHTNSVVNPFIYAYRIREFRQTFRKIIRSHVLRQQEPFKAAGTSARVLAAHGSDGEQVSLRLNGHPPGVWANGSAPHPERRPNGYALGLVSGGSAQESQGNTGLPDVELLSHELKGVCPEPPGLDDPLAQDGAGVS

Take `CC1=C(C(=O)OC(C)C)C(c2ccco2)n2c(nc3ccccc32)N1` (stereo unspecified): the inhibition in test [1] was determined as 2%; in test [2], 28%; in test [3], 20%. The Ki in test [4] came out at 20 nM; in test [5] it was 28 nM; in test [6] it was 2 nM.

Broadly, the inhibition is the share of the control response that was lost under treatment. In general, Ki refers to a measure of affinity in units of concentration, obtained from inhibition or displacement.
